Experimental data: PMC12272882, “Ancestral evolution of oxidase activity in a class of (S)-nicotine and (S)-6-hydroxynicotine-degrading flavoenzymes” (The Journal of Biological Chemistry, 2025)
Like-named read-outs stand apart in the source and are kept apart here.

Tests used:
Node D [1] = settings: pH 7.5, 4 °C, no O2; binding to oxidized enzyme; biphasic
Target sequence in this assay (DOC12272882_5 1-447 E300T): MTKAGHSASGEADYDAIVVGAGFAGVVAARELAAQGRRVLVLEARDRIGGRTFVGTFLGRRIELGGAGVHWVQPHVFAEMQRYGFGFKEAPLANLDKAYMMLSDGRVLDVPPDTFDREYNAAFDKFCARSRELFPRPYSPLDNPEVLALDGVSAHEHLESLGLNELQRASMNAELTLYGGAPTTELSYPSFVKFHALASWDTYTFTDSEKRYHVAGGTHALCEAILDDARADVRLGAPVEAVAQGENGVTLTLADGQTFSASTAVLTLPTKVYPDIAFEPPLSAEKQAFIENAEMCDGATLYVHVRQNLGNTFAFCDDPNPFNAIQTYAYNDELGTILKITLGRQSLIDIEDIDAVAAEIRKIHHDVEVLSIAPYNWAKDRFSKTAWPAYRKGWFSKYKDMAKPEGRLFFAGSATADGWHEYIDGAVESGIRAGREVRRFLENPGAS

Node A [2] = molecular target: T1, Node A (synthetic construct, UniProt Z9LAG0LSP2); test: anaerobic stopped-flow flavin reduction at […] nm; assay type: biochemical; settings: pH 7.5, 4 °C, no O2
T1 construct: ancestral reconstruction
T1 sequence (Z9LAG0LSP2 1-442): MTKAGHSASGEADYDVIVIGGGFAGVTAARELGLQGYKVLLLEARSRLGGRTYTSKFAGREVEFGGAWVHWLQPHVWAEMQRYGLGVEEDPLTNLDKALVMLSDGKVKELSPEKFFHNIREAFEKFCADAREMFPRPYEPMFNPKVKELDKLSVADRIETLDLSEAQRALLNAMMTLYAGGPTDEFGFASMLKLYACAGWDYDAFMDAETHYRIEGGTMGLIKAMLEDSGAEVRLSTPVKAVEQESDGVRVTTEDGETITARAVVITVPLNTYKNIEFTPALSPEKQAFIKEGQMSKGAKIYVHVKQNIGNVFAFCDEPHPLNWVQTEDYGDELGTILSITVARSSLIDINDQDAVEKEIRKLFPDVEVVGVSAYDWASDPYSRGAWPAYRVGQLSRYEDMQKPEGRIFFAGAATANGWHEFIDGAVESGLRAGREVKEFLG

Node D [3] = settings: pH 7.5, 4 °C, no O2; binding to oxidized enzyme; biphasic; remark: listed apart in the source
Target sequence in this assay (DOC12272882_5 1-447 M100V): as the sequence (DOC12272882_5 1-447 E300T) above, with M100V, T300E counted along it

Node D [4] = settings: pH 7.5, 4 °C, no O2; binding to oxidized enzyme; biphasic; remark: listed apart in the source
Target sequence in this assay (DOC12272882_5 1-447 A90V): as the sequence (DOC12272882_5 1-447 E300T) above, with A90V, T300E counted along it

NctB = molecular target: T2, NctB (Shinella sp. HZN7, UniProt A0A075BSX9); test: absorbance spectrum of purified enzyme; assay type: binding; settings: as purified
T2 construct: synthetic gene in pET29b, C-terminal His tag, E. coli BL21(DE3); FAD holoenzyme
T2 sequence (A0A075BSX9 whole entry): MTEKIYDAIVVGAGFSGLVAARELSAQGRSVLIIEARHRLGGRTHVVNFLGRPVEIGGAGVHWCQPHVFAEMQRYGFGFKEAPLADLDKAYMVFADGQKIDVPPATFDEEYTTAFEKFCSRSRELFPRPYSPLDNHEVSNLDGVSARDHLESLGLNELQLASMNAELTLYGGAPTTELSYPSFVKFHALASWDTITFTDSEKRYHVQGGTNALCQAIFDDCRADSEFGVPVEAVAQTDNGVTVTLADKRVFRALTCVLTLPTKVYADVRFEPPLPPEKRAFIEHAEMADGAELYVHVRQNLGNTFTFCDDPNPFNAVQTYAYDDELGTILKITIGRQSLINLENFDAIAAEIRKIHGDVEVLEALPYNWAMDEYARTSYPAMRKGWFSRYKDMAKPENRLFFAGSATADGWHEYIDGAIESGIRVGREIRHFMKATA

Node C = molecular target: T3, Node C (synthetic construct, UniProt Z9TTH1JYZ3); test: absorbance spectrum of purified enzyme; assay type: binding; settings: as purified
T3 construct: ancestral reconstruction; N-terminal MTKAGHSASGEA peptide added, C-terminal His tag, pET29b, E. coli BL21(DE3); 431 positions

Node A [5] = molecular target: T1, Node A; test: absorbance spectrum of purified enzyme; assay type: binding; settings: as purified
Node B = molecular target: T4, Node B (synthetic construct, UniProt Z9QPI4SOH8); test: absorbance spectrum of purified enzyme; assay type: binding; settings: as purified
T4 construct: ancestral reconstruction

Node D [6] = molecular target: T5, Node D (synthetic construct, UniProt Z9ZYW4GBP2); test: absorbance spectrum of purified enzyme; assay type: binding; settings: as purified
T5 construct: ancestral reconstruction; N-terminal MTKAGHSASGEA peptide (from Node D's own predicted N-terminal region), C-terminal His tag, pET29b, E. coli BL21(DE3); 431 positions

| SMILES | Kd (Node D [1]) | anaerobic stopped-flow flavin reduction at 450 nm (Node A [2]) | Kd (Node D [3]) | Kd (Node D [4]) | absorbance spectrum of purified enzyme (NctB) | absorbance spectrum of purified enzyme (Node C) | absorbance spectrum of purified enzyme (Node A [5]) | absorbance spectrum of purified enzyme (Node B) | absorbance spectrum of purified enzyme (Node D [6]) |
| --- | --- | --- | --- | --- | --- | --- | --- | --- | --- |
| CN1CCC[C@H]1c1ccc(O)nc1 [6OHN, (S)-6-hydroxynicotine] | All three mutants were capable of reacting with 6OHN | Node A reacted poorly with both nicotine and 6OHN | All three mutants were capable of reacting with 6OHN | All three mutants were capable of reacting with 6OHN | – | – | – | – | – |
| CN1CCC[C@H]1c1cccnc1 [(S)-nicotine] | – | Node A reacted poorly with both nicotine and 6OHN | – | – | – | – | – | – | – |
| Cc1cc2nc3c(=O)[nH]c(=O)nc-3n(C[C@H](O)[C@H](O)[C@H](O)COP(=O)(O)OP(=O)(O)OC[C@H]3O[C@@H](n4cnc5c(N)ncnc54)[C@H](O)[C@@H]3O)c2cc1C [FAD, flavin adenine dinucleotide] | – | – | – | – | all of the ASR enzymes and NctB have typical spectra of oxidized FAD | All ASR constructs purified with FAD bound | All ASR constructs purified with FAD bound | All ASR constructs purified with FAD bound | All ASR constructs purified with FAD bound |
